{"source": "patent US20230101022A1", "about": "“GINSENOSIDE M1 AS A MODULATOR OF A[…] AND ITS USE FOR TREATING DISEASES OR […] SYMPTOMS CAUSED BY CORONAVIRUS” (priority 2020, published 2023)", "key": {"[1]": {"tested_on": "Ang II and Ang-(1-7) levels in the renal tissue", "experiment": "Ang II and Ang-(1-7) level assessment in the renal tissue of mice infused Ang II (ELISA)", "type": "in vivo", "settings": "C57BL/6 mice infused Ang II, 20 mg/kg oral daily for 14 days, ELISA (FIG. 3), vs Ang II group", "protocol": "(§1) A total of twenty C57BL/6 mice (male, 10 weeks old) were maintained with rodent chow and water at will. Subcutaneous implantation of a 1002 osmotic minipump was performed at the dorsum of the neck for Ang II (1.5 mg/kg) or normal saline infusion animals were assigned to four groups: Saline group (5 mice, infused with normal saline and orally administered 0.5% CMC-Na); Ang II group (5 mice, infused with Ang II and orally administered 0.5% CMC-Na); Saline+Ginsenoside M1 group (5 mice, infused with normal saline and orally administered 20 mg·kg−1·d−1 Ginsenoside M1); Ang II +Ginsenoside M1 group (5 mice, infused with Ang II and orally administered 20 mg/kg Ginsenoside M1). Ginsenoside M1 or placebo administration was performed daily for 14 days, followed by animal sacrifice and blood and renal tissue sample collection. The renal tissue specimens underwent fixation with 4% formalin (histopathology) or were snap-frozen with liquid nitrogen and kept at −80° C. (RT-qPCR and ELISA).\n(§2) The supernatants of renal specimens were prepared as follows. A total of 100 mg of the renal tissue was homogenized in 900 μL of ice-cold normal saline and submitted to centrifugation (1000 g, 4° C. for 15 min). The resulting supernatants were kept at −80° C. until analysis with Ang II and Ang-(1-7) ELISA kits, respectively, in accordance with the manufacturer's protocols."}, "ACE2 [2]": {"tested_on": "ACE2", "experiment": "IHC of ACE2 in the renal tissue of SHR/WKY rats", "type": "in vivo, rat", "settings": "SHR, 20 mg/kg oral once daily for 42 days, IHC (FIG. 2)", "protocol": "(§3) A total of 20 Wistar-Kyoto rats (WKY) and 20 SHR (male, 16˜17 weeks old) animals were grouped into four: WKY group (8 WKY, orally administered 0.5% CMC-Na); SHR group (8 SHR, orally administered 0.5% CMC-Na); WKY+Ginsenoside M1 group (8 WKY, orally administered 20 mg/kgGinsenoside M1); SHR +Ginsenoside M1 group (8 SHR, orally administered 20 mg/kg Ginsenoside M1). Ginsenoside M1 or placebo administration was carried out once daily for 42 days is was followed by animal sacrifice and blood and renal tissue sample collection. The renal tissue specimens underwent fixation with 4% formalin (histopathology) or were snap-frozen with liquid nitrogen and kept at −80° C. for reverse transcription quantitative real-time polymerase chain reaction (RT-qPCR) and enzyme-linked immunosorbent assay (ELISA).\n(§4) ACE and ACE2 primary antibodies were produced by Bioss Antibodies. Peroxidase-linked goat anti-rabbit secondary antibodies and the DAB and two-step rabbit IHC kits were provided by ZSGB-BIO. IHC was carried out as proposed by ZSGB-BIO."}, "ACE [3]": {"tested_on": "ACE", "experiment": "IHC of ACE in the renal tissue of mice (infusion model)", "type": "in vivo", "settings": "C57BL/6 mice infused saline or Ang II, 20 mg/kg oral daily for 14 days, IHC (FIG. 4)", "protocol": "as §1, §4"}, "[4]": {"tested_on": "Ang II and Ang-(1-7) levels in the renal tissue", "experiment": "Ang II and Ang-(1-7) level assessment in the renal tissue of SHR/WKY rats (ELISA)", "type": "in vivo, rat", "settings": "20 mg/kg oral once daily for 42 days, ELISA (FIG. 1)", "protocol": "as §3, §2"}, "ACE [5]": {"tested_on": "ACE", "experiment": "IHC of ACE in the renal tissue of SHR/WKY rats", "type": "in vivo, rat", "settings": "either WKY or SHR, 20 mg/kg oral once daily for 42 days, IHC (FIG. 2)", "protocol": "as §3, §4"}, "ACE2 [6]": {"tested_on": "ACE2", "experiment": "IHC of ACE2 in the renal tissue of mice (infusion model)", "type": "in vivo", "settings": "C57BL/6 mice infused Ang II, 20 mg/kg oral daily for 14 days, IHC (FIG. 4), vs the other three groups", "protocol": "as §1, §4"}, "[7]": {"tested_on": "bleomycin-induced lung fibrosis", "experiment": "Bleomycin-induced lung alveolitis and fibrosis in mice (Szapiel scoring)", "type": "in vivo", "protocol": "The animals were randomly divided into 5 groups as: (1) Saline group: 0.9% saline (200 μL) injection via the tail vein; (2) ACE2 group: a single intraperitoneal injection of ACE2 (0.2 mg/kg); (3) BLM group: a single injection of bleomycin at 150 mg/kg via the tail vein; and (4) BLM+ACE2 group: an injection of bleomycin at 150 mg/kg via the tail vein, followed by an intraperitoneal injection of ACE2 at 0.2 mg/kg. (5) BLM+ACE2+M1 group: an injection of bleomycin at 150 mg/kg via the tail vein, followed by an intraperitoneal injection of 0.2 mg/kg ACE2 and 60mg/kg M1. After administration, ten animals randomly selected from each group were euthanized on days 7, 14 and 28 by cervical dislocation.\nAdministration of bleomycin is a well-characterized model of pulmonary alveolitis or fibrosis in mice. The fibrotic changes in the lungs were determined using the Szapiel scoring method, higher score indicating greater disease condition. […] On day 28, in the BLM group, alveolitis spontaneously resolved; however, derangement of the alveolar architecture continued, and fibrosis persisted, characterized by diffuse, dense, thick collagen bundles and fibroblast foci."}, "[8]": {"settings": "day 14, bleomycin 150 mg/kg tail vein, ACE2 0.2 mg/kg i.p."}}, "data": [{"molecule": "CC(C)=CCC[C@](C)(O[C@@H]1O[C@H](CO)[C@@H](O)[C@H](O)[C@H]1O)[C@H]1CC[C@]2(C)[C@@H]1[C@H](O)C[C@@H]1[C@@]3(C)CC[C@H](O)C(C)(C)[C@@H]3CC[C@]12C", "note": "[Ginsenoside M1, 20-O-β-D-glucopyranosyl-20(S)-protopanaxadiol]", "values": [{"measurement": "Ang II levels in the renal tissue", "setting": "[1]", "value": "attenuate this increase significantly"}, {"measurement": "Ang-(1-7) levels in the renal tissue", "setting": "[1]", "value": "significant increase compared with the Ang II group"}, {"measurement": "ACE2 amounts in the renal tissue", "setting": "ACE2 [2]", "value": "further upregulate"}, {"measurement": "ACE expression in the renal tissue", "setting": "ACE [3]", "value": "no marked differences"}, {"measurement": "Ang II levels in the renal tissue", "setting": "[4]; SHR, vs SHR group", "value": "significantly reduced"}, {"measurement": "Ang-(1-7) amounts in the renal tissue", "setting": "[4]; SHR, vs SHR group", "value": "significantly higher values compared with the SHR group"}, {"measurement": "Ang II levels in the renal tissue", "setting": "[4]; WKY", "value": "limited effects"}, {"measurement": "ACE expression in the renal tissue", "setting": "ACE [5]", "value": "no significant effect"}, {"measurement": "ACE2 expression levels in the renal tissue", "setting": "ACE2 [6]", "value": "markedly elevated"}]}, {"molecule": "ACE2: recombinant mouse ACE2 (angiotensin-converting enzyme 2) given by intraperitoneal injection (protein, UniProt Q8R0I0 18-805, looked up) Angiotensin-converting enzyme …: QSLTEENAKTFLNNFNQEAEDLSYQSSLASWNYNTNITEENAQKMSEAAAKWSAFYEEQSKTAQSFSLQEIQTPIIKRQLQALQQSGSSALSADKNKQLNTILNTMSTIYSTGKVCNPKNPQECLLLEPGLDEIMATSTDYNSRLWAWEGWRAEVGKQLRPLYEEYVVLKNEMARANNYNDYGDYWRGDYEAEGADGYNYNRNQLIEDVERTFAEIKPLYEHLHAYVRRKLMDTYPSYISPTGCLPAHLLGDMWGRFWTNLYPLTVPFAQKPNIDVTDAMMNQGWDAERIFQEAEKFFVSVGLPHMTQGFWANSMLTEPADGRKVVCHPTAWDLGHGDFRIKMCTKVTMDNFLTAHHEMGHIQYDMAYARQPFLLRNGANEGFHEAVGEIMSLSAATPKHLKSIGLLPSDFQEDSETEINFLLKQALTIVGTLPFTYMLEKWRWMVFRGEIPKEQWMKKWWEMKREIVGVVEPLPHDETYCDPASLFHVSNDYSFIRYYTRTIYQFQFQEALCQAAKYNGSLHKCDISNSTEAGQKLLKMLSLGNSEPWTKALENVVGARNMDVKPLLNYFQPLFDWLKEQNRNSFVGWNTEWSPYADQSIKVRISLKSALGANAYEWTNNEMFLFRSSVAYAMRKYFSIIKNQTVPFLEEDVRVSDLKPRVSFYFFVTSPQNVSDVIPRSEVEDAIRMSRGRINDVFGLNDNSLEFLGIHPTLEPPYQPPVTIWLIIFGVVMALVVVGIIILIVTGIKGRKKKNETKREENPYDSMDIGKGESNAGFQNSDDAQTSF", "values": [{"measurement": "Signs of alveolitis or fibrosis without bleomycin", "setting": "[7]; ACE2 group: single i.p. injection 0.2 mg/kg, no bleomycin, days 7, 14 and 28", "value": "No signs of alveolitis or fibrosis"}, {"measurement": "Pathological changes in the lung (alveolitis)", "setting": "[7]; day 7, bleomycin 150 mg/kg tail vein, ACE2 0.2 mg/kg i.p.", "value": "did not significantly alter"}, {"measurement": "Alveolitis (Szapiel scoring)", "setting": "[7]; [8]", "value": "significantly attenuated"}, {"measurement": "Fibrosis (Szapiel scoring)", "setting": "[7]; [8]", "value": "significantly attenuated"}, {"measurement": "Alveolitis (Szapiel scoring)", "setting": "[7]; day 28, bleomycin 150 mg/kg tail vein, ACE2 0.2 mg/kg i.p., with or without M1 60 mg/kg", "value": "only mild to moderate alveolitis"}]}]}
